Laboratory results: patent publication US20240398818A1, “Cardiosafe Antidiabetic Therapy” (priority 2018, published 2024)

Test system: adult patients with type 2 diabetes mellitus and with increased or high or very high CV risk evidenced by a history of established macrovascular or renal …
Assay: Cardiovascular (Safety) and Renal Microvascular Outcome Trial (linagliptin versus placebo)
Type: in vivo
Conditions: for All-cause mortality, Hazard Ratio: linagliptin vs placebo
Experimental: The effect of linagliptin on cardiovascular risk in adult patients with type 2 diabetes mellitus and with increased or high or very high CV risk evidenced by a history of established macrovascular or renal disease was evaluated in a Cardiovascular and Renal Microvascular Outcome Trial, a multi-center, multi-national, randomized, double-blind parallel group trial. The trial compared the risk of experiencing a major adverse cardiovascular event (MACE) between linagliptin and placebo when these were added to and used concomitantly with standard of care treatments for diabetes and other cardiovascular risk factors. The trial was event driven and patients were followed until at least 611 primary outcome events accrued.
A total of 6979 patients were treated (linagliptin 5 mg=3494; placebo=3485) and followed for a median of 2.2 years (median time on treatment 1.9 years). Approximately 80% of the study population was Caucasian, 9% was Asian, and 6% was Black. The mean age was 66 years and 63% were male.
The trial population included 1211 (17.4%) patients ≥75 years of age and 4348 (62.3%) patients with renal impairment. Approximately 19% of the population had eGFR ≥45 to <60 mL/min/1.73 m2, 28% of the population had eGFR ≥30 to <45 mL/min/1.73 m2 and 15% had eGFR <30 mL/min/1.73 m2. Overall, the use of diabetes medications was balanced across treatment groups (metformin 54%, sulfonylurea 32%, and insulin 57%). The use of medications to reduce cardiovascular risk was also balanced (aspirin 62%, statins 72%, ACE inhibitors or ARBs 81%, beta blockers 60%, and calcium channel blockers 41%).
The primary endpoint in the Cardiovascular and Renal Microvascular Outcome Trial was the time to first occurrence of three point (3P) MACE. A major adverse cardiac event was defined as a cardiovascular death or a nonfatal myocardial infarction (MI) or a nonfatal stroke. The statistical analysis plan tested for non-inferiority for the occurrence of (3P) MACE. The secondary endpoint was a renal composite, defined as renal death or sustained end stage renal disease or sustained decrease of 40% or more in eGFR.
The microvascular endpoint was defined as the composite of renal death, sustained ESRD, sustained decrease of ≥50% in eGFR, albuminuria progression, use of retinal photocoagulation or intravitreal injections of an anti-VEGF therapy for diabetic retinopathy or vitreous hemorrhage or diabetes-related-blindness. The estimated hazard ratio for time to first occurrence for the composite microvascular endpoint was 0.86 (95% CI 0.78, 0.95) for linagliptin versus placebo; mainly driven by albuminuria progression.
People with type 2 diabetes (T2D) with concomitant chronic kidney disease (CKD) and cardiovascular (CV) disease are at increased risk for recurrent CV events and hypoglycemia. Treatment of these individuals is clinically challenging, where the evidence-base for safety and efficacy of glucose lowering drugs is scarce, in particular in GFR categories G3b (eGFR 30-44 ml/min/1.73 m2), G4 (eGFR <30) and G5 (eGFR <15). We analyzed baseline characteristics and effects on CV and kidney outcomes with the DPP-4 inhibitor linagliptin (LINA) vs. placebo (PBO), across GFR categories in the Cardiovascular and Renal Microvascular Outcome Trial. People with T2D and either i) UACR >30 mg/g with concomitant CV disease, or ii) eGFR <45 ml/min/1.73 m^2 regardless of UACR, or eGFR ≥45-75 mL/min/1.73 m^2 and UACR >200 mg/g, were randomized to LINA 5 mg or placebo (PBO) q.d. in a double-blind fashion. The primary outcome was first occurrence of CV death, non-fatal myocardial infarction, or non-fatal stroke (3P-MACE), with an adjudicated secondary composite outcome of ESKD, renal death, or sustained ≥40% decrease in eGFR from baseline. Other adjudicated outcomes included hospitalized heart failure (hHF) and the 3P-MACE components. Subgroup-effects across GFR categories (G≤2, G3a, G3b and G≥4) were also assessed. […]

[1] = LINA vs PBO, across all GFR categories
[2] = linagliptin relative to placebo, listed as linagliptin

## CC#CCn1c(N2CCC[C@@H](N)C2)nc2c1c(=O)n(Cc1nc(C)c3ccccc3n1)c(=O)n2C [Linagliptin, 1-[(4-methyl-quinazolin-2-yl)methyl]-3-methyl-7-(2-butyn-1-yl)-8-(3-(R)-amino-piperidin-1-yl)-xanthine]
[1]
  HbA1c (in words): reduced significantly
  risk for hypoglycemia (in words): without increased risk
In vivo
  Progression of albuminuria category, patients with event / patients analysed: 763/2162
  risk of HHF regardless of baseline renal function (in words): did not affect
Linagliptin relative to placebo
  Hospitalization for heart failure, Hazard Ratio: 0.90
Linagliptin relative to placebo, listed as LINA
  Secondary renal composite, Hazard Ratio: 1.04
Linagliptin relative to placebo, listed as TRADJENTA
  3P-MACE, Hazard Ratio: 1.02
[2]
  3P-MACE, Hazard Ratio: 1.02
  Secondary renal composite, Hazard Ratio: 1.04
Linagliptin versus placebo
  albuminuria progression (normo- to micro-/macroalbuminuria, or micro- to macroalbuminuria), hazard ratio: 0.86
Linagliptin versus placebo, mainly driven by albuminuria progression
  composite microvascular endpoint, time to first occurrence, hazard ratio: 0.86
  All-cause mortality, Hazard Ratio: 0.98
Listed as TRADJENTA
  All-cause mortality, Hazard Ratio: 0.98
Listed as linagliptin
  All-cause mortality, Hazard Ratio: 0.98
Median follow-up 2.2 years
  3P-MACE, Incidence Rate per 1000 PY: 57.7 per 1000 PY
  3P-MACE, Subjects (%): (12.4) %
  All-cause mortality, Incidence Rate per 1000 PY: 46.9 per 1000 PY
  All-cause mortality, Subjects (%): (10.5) %
  Hospitalization for heart failure, Incidence Rate per 1000 PY: 27.7 per 1000 PY
  Hospitalization for heart failure, Number of Subjects: 209
  Hospitalization for heart failure, Subjects (%): (6.0) %
  Secondary renal composite (renal death, ESRD, 40% sustained decrease in eGFR), Number of Subjects: 327
  Secondary renal composite, Incidence Rate per 1000 PY: 48.9 per 1000 PY
Median follow-up 2.2 years, added to standard of care
  Composite of first event of CV death, non-fatal MI, or non-fatal stroke (3P-MACE), Number of Subjects: 434
Median follow-up 2.2 years, listed as TRADJENTA
  All-cause mortality, Subjects (%): (10.5%)
Median follow-up 2.2 years, listed as linagliptin
  Hospitalization for heart failure, Subjects (%): 6.0%
